Assay results as given in publication PMC10304372, “T-705-Derived Prodrugs Show High Antiviral Efficacies against a Broad Range of Influenza A Viruses with Synergistic Effects When Combined with Oseltamivir” (Pharmaceutics, 2023).
Like-named read-outs stand apart in the source and are kept apart here.

Tests used:
[1] = tested on: A/Vietnam/1194/04 (H5N1); test: microbe, parasite or virus in culture; format: cell-based, influenza A virus; settings: for IC90: read-out: IC90 (90% inhibitory effect on viral replication), H5N1
[2] = in vitro; settings: dog
[3] = tested on: A/Hamburg/NY1580/09 (H1N1); test: microbe, parasite or virus in culture; format: cell-based, influenza A virus; settings: for IC50: read-out: IC50 H1N1
[4] = tested on: MDCKII cells; settings: for concentration from which considerable cell cytotoxicity was caused: dog
[5] = tested on: A/Victoria/03/75 (H3N2); format: cell-based, influenza A virus
[6] = tested on: A/Anhui/1/13 (H7N9); test: microbe, parasite or virus in culture; format: cell-based, influenza A virus; settings: for IC50: read-out: IC50 H7N9
[7] = tested on: H5N1 HPAIV; format: cell-based, influenza A virus
[8] = tested on: RdRP subunit PA (polymerase acidic protein); settings: cited from earlier work
[9] = Influenza A virus, H5N1, MDCK-II, 24 h, read-out: IC50 H5N1
[10] = Influenza A virus, H1N1, MDCK-II, 24 h
[11] = Influenza A virus, H7N9, MDCK-II, 24 h
[12] = Influenza A virus, H5N1, MDCK-II

| SMILES | IC50 [1, 9] | IC50 ([1]; read-out: IC50 H5N1) | CC50 [2] | IC50 [3, 10] | IC50 [3] | IC50 [6, 11] | antiviral activity against H3N2 IAV (in words) [5] | SI (selectivity index) H5N1 [1] | SI (selectivity index) H1N1 [3] | concentration from which considerable cell cytotoxicity was caused [4] | SI (selectivity index) H7N9 [6] | other results |
| --- | --- | --- | --- | --- | --- | --- | --- | --- | --- | --- | --- | --- |
| NC(=O)c1nc(F)c[nH]c1=O [1a, T-705] | 1140 nM | 1140 ± 1170 nM | > 50000 nM | 1290 nM | 1300 ± 1400 nM | 790 ± 540 nM |  |  |  |  |  | effect on cell viability (in words) [4]: did not affect cell viability; reduction of virus replication [5]: approximately 1.5 logs |
| NC(=O)c1ncc[nH]c1=O [1b, T-1105, reference compound] |  |  |  |  |  |  |  |  |  |  |  | reduction of virus replication [5]: approximately 1.5 logs |
| NC(=O)c1nccn([C@@H]2O[C@H](CO)[C@@H](O)[C@H]2O)c1=O [2a, T-1106] |  |  |  |  |  |  | slightly higher activity compared to T-1105 1b |  |  |  |  |  |
| CCCCCCCCCC(=O)Oc1ccc(COP(=O)(OCc2ccc(OC(=O)CCCCCCCCC)cc2)OP(=O)(O)OC[C@H]2O[C@@H](n3ccnc(C(N)=O)c3=O)[C@H](O)[C@@H]2O)cc1 [3a] | 220 nM | 224 ± 230 nM | > 50000 nM | 130 ± 140 nM |  | 70 nM | reduced viral titers to the limit of detection | 373.7 | 643.9 | ≥ 30 µM | 1179.0 | IC1 (1% inhibitory effect on viral replication), H5N1 [1]: 0.0005 µM; IC10 (10% inhibitory effect on viral replication), H5N1 [1]: 13.2 nM; reduction of H5N1 virus titers to the limit of detection (in words) [1]: to the limit of detection; IC50 ([1]; Influenza A virus, H5N1, MDCK-II, read-out: IC50, H5N1, as used for combination treatment): 267 nM; IC90 [1, 12]: 5400 nM; increase in antiviral activity compared to 1a (T-705), H1N1 [3]: 10 fold; interaction with oseltamivir against H5N1 (in words) [7]: strong synergistic effect; more active than 1a against H7N9 [6]: 10 fold; reduction of H7N9 virus titers to the limit of detection (in words) [6]: to the limit of detection; IC50 [6]: 71 ± 90 nM |
| CCCCCCCCCCCCCCC(=O)Oc1ccc(COP(=O)(OCc2ccc(OC(=O)CCCC)cc2)OP(=O)(O)OC[C@H]2O[C@@H](n3ccnc(C(N)=O)c3=O)[C@H](O)[C@@H]2O)cc1 (stereo partly drawn) [3b] | 120 nM | 116 ± 13 nM | > 50000 nM | 1490 nM | 1490 ± 2360 nM | 620 nM | reduced viral titers to the limit of detection | 850.9 | 66.4 | ≥ 30 µM | 158.2 | reduction of H5N1 virus titers to the limit of detection (in words) [1]: to the limit of detection; antiviral activity against H7N9 compared to 1a (comparable or fold reduced) [6]: comparable; reduction of H7N9 virus titers to the limit of detection (in words) [6]: to the limit of detection; IC50 [6]: 624 ± 1040 nM |
| CCCCCCCCCC(=O)Oc1ccc(COP(=O)(OCc2ccc(OC(=O)CCCCCCCCC)cc2)OP(=O)(O)OP(=O)(O)OC[C@H]2O[C@@H](n3ccnc(C(N)=O)c3=O)[C@H](O)[C@@H]2O)cc1 [4a, T-1106-C9C9-TriPPPro] | 310 nM | 314 ± 380 nM | > 50000 nM | 3320 nM | 3320 ± 4410 nM | 2020 ± 1230 nM | modest reduction in viral replication | 460.2 | 43.6 | ≥ 30 µM | 71.5 | antiviral activity against H7N9 compared to 1a (comparable or fold reduced) [6]: 2.5 fold |
| O=C1c2c(O)c(=O)ccn2N([C@@H]2c3ccccc3SCc3c2ccc(F)c3F)[C@@H]2COCCN12 [Baloxavir, baloxavir] |  |  |  |  |  |  |  |  |  |  |  | inhibitory activity on PA of various IAV subtypes incl. H5N1 and H7N9 (in words) [8]: pico- to nanomolar activity |
| CCOC(=O)C1=C[C@@H](OC(CC)CC)[C@H](NC(C)=O)[C@@H](N)C1 [oseltamivir] |  |  | > 100000 nM |  |  |  |  |  |  |  |  | IC1 (1% inhibitory effect on viral replication), H5N1 [1]: 0.00002 µM; IC10 (10% inhibitory effect on viral replication), H5N1 [1]: 0.5 nM; IC50 ([1]; Influenza A virus, H5N1, MDCK-II, 24 h, read-out: IC50 H5N1 (oseltamivir)): 8 nM; IC90 [1, 12]: 127 nM |
